This passage reports EC50 results from US10800789B2, “Antiviral compounds” (Gilead Pharmasset LLC, priority 2012, dated 2020).

Like-named read-outs stand apart in the source and are kept apart here. A value given as a limit tells only on which side of the number the result lay.

Test [1] concerns NS5A chimeric genotype 2a JFH-1 replicon with genotype 2b MD2b-1 strain NS5A gene (M31 present). Kind of test: Replicon assay, genotype 2b NS5A chimera. The class given is cell-based, HCV. As to conditions: Hepatitis C virus. The essentials: (§1)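 Cells carrying the stable or transiently transfected (Huh-Lunet) dicistronic RLuc replicons received 3-fold serial compound dilutions from 10 mM DMSO stocks. After 72 h, cells were lysed and Renilla luciferase read. DMSO served as the no-inhibition control and ITMN-191 above 100×EC50 as the positive control; EC50 by non-linear regression.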
On the technique in general: A replicon is a self-replicating genome or part of one, used to study replication in cells.

The subject of test [2] is Q30R in genotype 1a NS5A (1a Pi-Rluc replicon, Huh-7-derived cured-51 cells). The experiment in a line: Replicon assay against resistance mutant 1a Q30R. The class given is cell-based, HCV. Conditions: Hepatitis C virus. Here is the method: Antiviral potency (EC50) was determined using a Renilla luciferase (RLuc)-based HCV replicon reporter assay. To perform the assay for genotype 1 and 2a JFH-1, stable HCV 1a RLuc replicon cells (harboring a dicistronic genotype 1a H77 replicon that encodes a RLuc reporter), stable HCV 1b RLuc replicon cells (harboring a dicistronic genotype 1b Con1 replicon that encodes a RLuc reporter), or stable HCV 2a JFH-1 Rluc replicon cells (harboring a dicistronic genotype 2a JFH-1 replicon that encodes a RLuc reporter; with L31 present in NS5A) were dispensed into 384-well plates for EC50 assays. To perform the assay for genotype 2a (with M31 present in NS5A) or 2b, NS5A chimeric genotype 2a JFH-1 replicons that encodes a RLuc-Neo reporter and either genotype 2a J6 strain NS5A gene or genotype 2b MD2b-1 strain NS5A gene (both with M31 present) respectively, were either transiently transfected (t) into Huh-Lunet cells or were established as stably replicating replicon cells (s) is provided. Either cells were dispensed into 384-well plates for EC50 assays. To perform the assay for genotype 3 and 4, NS5A chimeric genotype 1b Con1 replicons that encodes a Pi-RLuc reporter and either genotype 3a S52 strain NS5A gene or genotype 4a ED43 strain NS5A gene respectively, were transiently transfected (t) into Huh-Lunet cells, which were subsequently dispensed into 384-well plates. Compounds were dissolved in DMSO at a concentration of 10 mM and diluted in DMSO either manually or using an automated pipeting instrument. Serially 3-fold diluted compounds were either manually mixed with cell culture media and added to the seeded cells or directly added to the cells using an automated instrument. DMSO was used as a negative (solvent; no inhibition) control, and the protease inhibitor ITMN-191 was included at a concentration>100×EC50 as a positive control. 72 hours later, cells were lysed and Renilla luciferase activity quantified as recommended by the manufacturer (Promega-Madison, Wis.). Non-linear regression was performed to calculate EC50 values.
To determine the antiviral potency (EC50) against resistance mutants, resistance mutations, including M28T, Q30R, Q30H, Q30E, L31M, Y93C, Y93H, and Y93N in genotype 1a NS5A, Y93H and L31V/Y93H in genotype 1b NS5A, and Y93H for in genotype 3a NS5A, were introduced individually into either 1a Pi-Rluc or 1b Pi-Rluc replicons by site directed mutagenesis. Replicon RNA of each resistant mutant was transiently transfected into Huh-7-derived cured-51 cells and antiviral potency was determined on these transfected cells as described above.

Test [3] deals with NS5A chimeric genotype 1b Con1 replicon with genotype 3a S52 strain NS5A gene. Kind of test: Replicon assay, genotype 3a NS5A chimera. As to conditions: Hepatitis C virus. The class given is cell-based, HCV.
In test [4] the test system is stable HCV 1a RLuc replicon cells (dicistronic genotype 1a H77 replicon). The experiment in a line: Renilla luciferase HCV replicon reporter assay, genotype 1a. The class given is cell-based. Conditions: Hepatitis C virus, 72 h, stable 1a H77 RLuc replicon cells. Summed up: (§2)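 Antiviral EC50 was determined in HCV replicon cells (stable RLuc lines for 1a H77, 1b Con1, 2a JFH-1 with NS5A L31; J6 NS5A chimera with M31) treated 72 h with compound. Renilla luciferase was then quantified.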

Test [5] relates to stable HCV 2a JFH-1 Rluc replicon cells (L31 present in NS5A). The experiment in a line: Renilla luciferase HCV replicon reporter assay, genotype 2a JFH-1. The class given is cell-based. As to conditions: Hepatitis C virus. Summed up: as §2
Test [6] has as its system stable HCV 1b RLuc replicon cells (dicistronic genotype 1b Con1 replicon). The experiment in a line: Renilla luciferase HCV replicon reporter assay, genotype 1b. In kind it is cell-based. Conditions: Hepatitis C virus, 72 h, stable 1b Con1 RLuc replicon cells, 72 hours; read-out: 1b. The essentials: as §2
For test [7], the system named is NS5A chimeric genotype 1b Con1 replicon with genotype 4a ED43 strain NS5A gene. The experiment in a line: Replicon assay, genotype 4a NS5A chimera. In kind it is cell-based, HCV. Conditions: Hepatitis C virus.
Test [8] relates to NS5A chimeric genotype 2a JFH-1 replicon with genotype 2a J6 strain NS5A gene (M31 present). The experiment in a line: Replicon assay, genotype 2a J6 NS5A chimera. In kind it is cell-based, HCV. Conditions: Hepatitis C virus. The essentials:
as §1

The mark [9] stands for this setting: 2BS, read-out: 2b (s), stably replicating replicon cells (s), activity range.
Where [10] appears, read: read-out: 2b (s) (nM), genotype 2b MD2b-1 NS5A chimeric replicon (M31), stably replicating replicon cells (s).
[11] abbreviates: read-out: 3a (s) (nM), genotype 3a NS5A chimeric replicon, stable replicon cells (s).
The mark [12] stands for this setting: read-out: 3a (s), (s), activity range.
Where [13] appears, read: read-out: 2a JFH (nM), genotype 2a JFH-1 replicon (L31 in NS5A), stable cells.
[14] abbreviates: read-out: 2a JFH, stable 2a JFH-1 Rluc replicon cells, L31 in NS5A, activity range.
The mark [15] stands for this setting: read-out: 4a (s) (nM), genotype 4a NS5A chimeric replicon, stable replicon cells (s).
Where [16] appears, read: read-out: 4a (s), (s), activity range.
Setting [17] is: read-out: 2a J6 (t) (nM), genotype 2a J6 NS5A chimeric replicon (M31), transiently transfected (t) into Huh-Lunet cells.
[18] abbreviates: read-out: 2a J6 (t), transiently transfected (t) into Huh-Lunet cells, activity range.

With `CC[C@H]1CC[C@@H](c2nc3ccc4cc5c(cc4c3[nH]2)OCc2cc(-c3cnc([C@@H]4CC[C@H](C)N4C(=O)[C@@H](NC(=O)OC)C(C)C)[nH]3)ccc2-5)N1C(=O)[C@@H](NC(=O)OC)C1CCOCC1` [EO, methyl[(1 S)-2-[(2S,5S)-2-ethyl-5-(9-{2-[(2S,5S)-1-{(2S)-2 [(methoxycarbonyl)amino]-3-methylbutanoyl}-5-methylpyrrolidin-2-yl]-1H-imidazol-5-yl}-1,11-dihydroisochromeno[4′,3′:6,7]naphtho[1,2-d]imidazol-2-yl)pyrrolidin-1-yl]-2-oxo-1-(tetrahydro-2H-pyran-4-yl)ethyl]carbamate], the EC50 in test [1] (setting [9]) is less than 0.1 nM; in test [1] (setting [10]), 0.091 nM; in test [1] (read-out: 2b (t) (nM), genotype 2b MD2b-1 NS5A chimeric replicon (M31), transiently transfected (t)) it was 0.038 nM; in test [1] (read-out: 2b (t), transiently transfected (t) into Huh-Lunet cells, activity range), less than 0.1 nM; in test [2] (read-out: 1a Q30R) it was less than 0.1 nM; in test [2] (read-out: 1a Q30R (nM)), 0.052 nM. The EC50 in test [3] (setting [11]) was 0.054 nM; in test [3] (setting [12]), less than 0.1 nM; in test [4], 0.024 nM; in test [4] (activity range) it was less than 0.1 nM; in test [5] (setting [13]), 0.017 nM; in test [5] (setting [14]), less than 0.1 nM. Also, the EC50 in test [6] amounted to 0.04 nM.
`COC(=O)N[C@H](C(=O)N1[C@@H](C)CC[C@H]1c1ncc(-c2ccc3c(c2)COc2cc4c(ccc5nc([C@@H]6CC[C@H](C)N6C(=O)[C@@H](NC(=O)OC)[C@@H](C)O)[nH]c54)cc2-3)[nH]1)C(C)C` [FI, Methyl {(2S,3R)-3-hydroxy-1-[(2S,5S)-2-(9-{2-[(2S,5S)-1-{(2S)-2-[(methoxycarbonyl)amino]-3-methylbutanoyl}-5-methylpyrrolidin-2-yl]-1H-imidazol-5-yl}-1,11-dihydroisochromeno[4′,3′:6,7]naphtho[1,2-d]imidazol-2-yl)-5-methylpyrrolidin-1-yl]-1-oxobutan-2-yl}carbamate]: the EC50 in test [1] (setting [9]) was 0.1 to 0.999 nM; in test [1] (setting [10]), 0.152 nM; in test [2] (read-out: 1a Q30R), 0.1 to 0.999 nM; in test [2] (read-out: 1a Q30R (nM)), 0.115 nM; in test [3] (setting [11]), 0.04 nM; in test [3] (setting [12]) it was less than 0.1 nM. Besides, the EC50 in test [7] (setting [15]) is 0.012 nM; in test [7] (setting [16]), less than 0.1 nM; in test [4], 0.01 nM; in test [4] (activity range), less than 0.1 nM; in test [5] (setting [13]), 0.015 nM; in test [5] (setting [14]), less than 0.1 nM. Further, in test [6], the EC50 was determined as 0.022 nM.
With `COC(=O)N[C@H](C(=O)N1[C@@H](C)CC[C@H]1c1ncc(-c2ccc3c(c2)COc2cc4c(ccc5nc([C@@H]6CC[C@H](C)N6C(=O)[C@@H](NC(=O)OC)[C@@H](C)OC)[nH]c54)cc2-3)[nH]1)C1CCOCC1` [FR, Methyl [(1 S)-2-[(2S,5S)-2-(5-{2-[(2S,5S)-1-{(2S,3R)-3-methoxy-2-[(methoxycarbonyl)amino]butanoyl}-5-methylpyrrolidin-2-yl]-1,11-dihydroisochromeno[4′,3′:6,7]naphtho[1,2-d]imidazol-9-yl}-1H-imidazol-2-yl)-5-methylpyrrolidin-1-yl]-2-oxo-1-(tetrahydro-2H-pyran-4-yl)ethyl]carbamate], the EC50 was less than 0.1 nM in test [1] (setting [9]); 0.054 nM in test [1] (setting [10]); less than 0.1 nM in test [2] (read-out: 1a Q30R); 0.071 nM in test [2] (read-out: 1a Q30R (nM)); 0.031 nM in test [3] (setting [11]); less than 0.1 nM in test [3] (setting [12]). The EC50 in test [4] was 0.026 nM; in test [4] (activity range) it was less than 0.1 nM; in test [5] (setting [13]) it was 0.015 nM; in test [5] (setting [14]), less than 0.1 nM; in test [6] it was 0.05 nM.
For `CC[C@H]1CC[C@@H](c2nc3ccc4cc5c(cc4c3[nH]2)OCc2cc(-c3cnc([C@@H]4C[C@H](C)CN4C(=O)[C@@H](NC(=O)OC)C(C)C)[nH]3)ccc2-5)N1C(=O)[C@@H](NC(=O)OC)C1CCOCC1` [IS], the EC50 in test [1] (setting [9]) is less than 0.1 nM; in test [1] (setting [10]), 0.083 nM; in test [8] (setting [17]), 0.052 nM; in test [8] (setting [18]), less than 0.1 nM; in test [3] (setting [11]), 0.174 nM; in test [3] (setting [12]), 0.1 to 0.999 nM. Besides, the EC50 in test [7] (setting [15]) was 0.015 nM; in test [7] (setting [16]), less than 0.1 nM; in test [4], 0.017 nM; in test [4] (activity range), less than 0.1 nM; in test [5] (setting [13]) it was 0.018 nM; in test [5] (setting [14]), less than 0.1 nM. In addition, the EC50 in test [6] is 0.021 nM.
Take `CCC[C@H]1CC[C@@H](c2nc3ccc4cc5c(cc4c3[nH]2)OCc2cc(-c3cnc([C@@H]4CC[C@H](C)N4C(=O)[C@@H](NC(=O)OC)C(C)C)[nH]3)ccc2-5)N1C(=O)[C@@H](NC(=O)OC)C1CCOCC1` [IV]: the EC50 in test [1] (setting [9]) is 0.1 to 0.999 nM; in test [1] (setting [10]), 0.426 nM; in test [8] (read-out: 2a J6 (s) (nM), genotype 2a J6 NS5A chimeric replicon (M31), stably replicating replicon cells (s)), 0.068 nM; in test [8] (read-out: 2a J6 (s), stably replicating replicon cells (s), activity range), less than 0.1 nM; in test [3] (setting [11]) it was 0.236 nM; in test [3] (setting [12]), 0.1 to 0.999 nM. The EC50 is 0.018 nM in test [7] (setting [15]); less than 0.1 nM in test [7] (setting [16]); 0.045 nM in test [4]; less than 0.1 nM in test [4] (activity range); 0.055 nM in test [5] (setting [13]); less than 0.1 nM in test [5] (setting [14]). In test [6], the EC50 stood at 0.053 nM.
With `COC(=O)N[C@H](C(=O)N1[C@H](c2ncc(-c3ccc4c(c3)COc3cc5c(ccc6nc([C@@H]7CC[C@H](C)N7C(=O)[C@@H](NC(=O)OC)C7CCOCC7)[nH]c65)cc3-4)[nH]2)C[C@@H]2CCC[C@@H]21)C(C)C` [IY], the EC50 in test [1] (setting [9]) is less than 0.1 nM; in test [1] (setting [10]), 0.069 nM; in test [8] (setting [17]), 0.047 nM; in test [8] (setting [18]) it was less than 0.1 nM; in test [3] (setting [11]), 0.045 nM; in test [3] (setting [12]), less than 0.1 nM. In addition, the EC50 is 0.019 nM in test [7] (setting [15]); less than 0.1 nM in test [7] (setting [16]); 0.023 nM in test [4]; less than 0.1 nM in test [4] (activity range); 0.012 nM in test [5] (setting [13]); less than 0.1 nM in test [5] (setting [14]). The EC50 in test [6] amounted to 0.03 nM.
